Test results from patent US5760036A, “Aminediol protease inhibitors” (E. R. Squibb & Sons, Inc., priority 1995, dated 1998).
Like-named read-outs stand apart in the source and are kept apart here.

Experiments:
HIV protease = target: T1, HIV protease (Human immunodeficiency virus type 1 group M subtype B, UniProt P04585); experiment: HIV Protease Assay; format: biochemical
T1 construct: and purified protease
How it was run: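 At a single final concentration of 10 μM (4% DMSO), inhibitors were added to a 30-minute, 37° C reaction of purified enzyme with 450 μM H2N-Val-Ser-Gln-Asn-(β-naphthyl-alanine)-Pro-Val-Ile-OH at pH 5.5 (sodium acetate, BSA). Hydrolysis was quantified by reverse-phase HPLC with 220 nm detection after acid quench.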

[1] = tested on: RF strain of HIV (CEM-SS cells); experiment: Cell Culture Anti-HIV Activity (cell viability, formazan); format: cell-based; details: Human immunodeficiency virus 1, CEM-SS, 144 h, CEM-SS cells, RF strain of HIV, multiplicity of infection 0.04, 6 days at 37° C., 450 nm; read-out: HIV (CEM Cells) IC50
How it was run: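 Half-log compound dilutions added to CEM-SS cells (5000/well) carrying HIV RF (MOI 0.04), 6 days, 37° C. Cell protection measured as formazan from tetrazolium, A450. IC50: drug level restoring infected-cell formazan to 50% of the uninfected untreated control.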

[2] = pH 5.5, read-out: HIV Protease % Inhibition at 10 μM
[3] = pH 5.5, 10 μM inhibitor, 4% DMSO, 450 μM substrate, pH 5.5, 30 minutes at 37° C., RP-HPLC, read-out: HIV Protease % Inhibition at 10 μM

`CC(C)(C)OC(=O)N[C@@H](CC1CCCCC1)[C@H](O)CNC[C@@H](O)[C@H](CC1CCCCC1)NC(=O)OC(C)(C)C` [Compound 14, [R-(R*,S*)]-[Iminobis[1-(cyclohexylmethyl)-2-hydroxy-3,1-propanediyl]]-biscarbamic acid, bis(1,1-dimethylethyl) ester] showed an inhibition at 10 µM (HIV protease; [2]) of 100% and an IC50 [1] of 1100 nM.

`COc1ccccc1C[C@H](NC(=O)OC(C)(C)C)[C@H](O)CNC[C@@H](O)[C@H](Cc1ccccc1)NC(=O)OC(C)(C)C` [Compound 349, [1S-[1R*,2S*(2S*,3R*)]]-[3-[[3-1,1-Dimethylethoxy)-carbonyl]amino]-2-hydroxy-4-(2-methoxyphenyl)butyl]-amino]-2-hydroxy-1-(phenylmethyl)propyl]carbamic acid, 1,1-dimethylethyl ester] showed an inhibition at 10 µM (HIV protease; [3]) of 98% and an IC50 [1] of 370 nM.

`CC(C)(C)OC(=O)N[C@@H](Cc1ccccc1)[C@H](O)CNC[C@@H](O)[C@H](Cc1cccc(O)c1)NC(=O)OC(C)(C)C` [Compound 29, [1S-[1R*,2S*(2S*,3R*)]]-[3-[[3-[[(1,1-Dimethylethoxy)-carbonyl]amino]-2-hydroxy-4-(3-hydroxyphenyl)butyl]-amino]-2-hydroxy-1-(phenylmethyl)propyl]carbamic acid, 1,1-dimethylethyl ester] gave an inhibition at 10 µM (HIV protease; [2]) of 100% and an IC50 [1] of 100 nM.

Work on `CC(C)(C)OC(=O)N[C@@H](Cc1ccccc1)[C@H](O)CNC[C@@H](O)[C@H](Cc1c[nH]c2ccccc12)NC(=O)OC(C)(C)C` [Compound 23, [1S-[1R*,2S*(2S*,3R*)]]-[3-[[3-[[(1,1-Dimethylethoxy)carbonyl]amino]-2-hydroxy-4-(1H-indol-3-ylmethyl)butyl]amino]-2-hydroxy-1-(phenylmethyl)propyl]carbamic acid, 1,1-dimethylethyl ester] yielded an inhibition at 10 µM (HIV protease; [3]) of 98% and an IC50 [1] of 450 nM.

Molecule `CC(OC(=O)N[C@@H](Cc1ccccc1)[C@H](O)CNC[C@@H](O)[C@H](Cc1ccccc1)NC(=O)OC(C)(C)C)c1cccnc1` (stereo partly drawn) [Compound 258, [R-(R*,S*)]-[Iminobis[2-hydroxy-1-(phenylmethyl)-3,1-propanediyl)]biscarbamic acid. 1,1-dimethylethyl-1-(3-pyridinyl)ethyl ester] has an inhibition at 10 µM (HIV protease; [3]) of 91% and an IC50 [1] of 1500 nM.

Molecule `COC(C(=O)N[C@@H](Cc1ccccc1)[C@H](O)CNC[C@@H](O)[C@H](Cc1ccccc1)NC(=O)OC(C)(C)C)C(C)(C)C` (stereo partly drawn) [Compound 325, [1S-[1R*,2S*(2S*,3R*)]]-[2-Hydroxy-3-[[2-hydroxy-3-[(2-methoxy-3,3-dimethyl-1-oxobutyl)amino]-4-phenylbutyl]amino]-1-(phenylmethyl)-propyl]carbamic acid, 1,1-dimethylethyl ester] has an inhibition at 10 µM (HIV protease; [3]) of 90% and an IC50 [1] of 1540 nM.

For `CC(C)(C)OC(=O)N[C@@H](Cc1ccccc1)[C@H](O)CNC[C@@H](O)[C@H](Cc1ccccc1)NC(=O)[C@@H](NC(=O)OCCOc1ccccc1)C(C)(C)C` [Compound 326, [S-[1R*,2S*(2S*,3R*)]]-[2,2-Dimethyl-1-[[[3-[[3-[[(1,1-dimethylethoxy)carbonyl]amino]-2-hydroxy-4-phenylbutyl]amino]-2-hydroxy-1-(phenylmethyl)propyl]amino]carbonyl]propyl]carbamic acid, (2-(phenyloxy)ethyl ester], the inhibition at 10 µM (HIV protease; [3]) was 99% and the IC50 [1] was 30 nM.

`CC(C)[C@H](NC(=O)[C@@H](C)O)C(=O)N[C@@H](Cc1ccccc1)[C@H](O)CNC[C@@H](O)[C@H](Cc1ccccc1)NC(=O)OC(C)(C)C` [Compound 221, [1S-[[1R*,2S*(2S*,3R*)],N^2-(S*) ]]-N-[3-[[3-[[(1,1-Dimethylethoxy)carbonyl]amino]-2-hydroxy-4-phenylbutyl]amino]-2-hydroxy-1-(phenylmethyl)propyl]-N^2-(2-hydroxy-1-oxopropyl)-L-valinamide] showed an inhibition at 10 µM (HIV protease; [3]) of 96% and an IC50 [1] of 1100 nM.

`CC(C)[C@H](NC(=O)OCc1nc2ccccc2n1C)C(=O)N[C@@H](Cc1ccccc1)[C@H](O)CNC[C@@H](O)[C@H](Cc1ccccc1)NC(=O)OC(C)(C)C` [Compound 170, [S-[1R*,2S*(2S*,3R*)]-N-[3-[[3-[[(1 l-Dimethylethoxy)carbonyl]amino]-2-hydroxy-4-phenylbutyl]amino]-2-hydroxy-1-(phenylmethyl)-propyl]-N^2-[[(1-methyl-1H-benzimidazol-2-yl)-methoxy]carbonyl]-L-valinamide] gave an inhibition at 10 µM (HIV protease; [3]) of 100% and an IC50 [1] of 100 nM.

Molecule `CC(C)(C)OC(=O)N[C@@H](Cc1ccccc1)[C@@H](O)CNC[C@H](O)[C@H](Cc1ccccc1)NC(=O)OC(C)(C)C` [Compound 3, [1S-[1R*,2R*(2R*,3R*)]]-[3-[[3-[[(1,1-Dimethylethoxy)carbonyl]amino]-2-hydroxy-4-phenylbutyl]amino]-2-hydroxy-1-(phenylmethyl)propyl]carbamic acid, 1,1-dimethylethyl ester] has an inhibition at 10 µM (HIV protease; [3]) of 0% and an IC50 [1] greater than 3200 nM.

`CC(C)(C)OC(=O)N[C@@H](Cc1ccccc1)[C@H](O)CNC[C@@H](O)[C@H](Cc1ccccc1)NC(=O)OC[C@@H](O)CO` [Compound 230, [1S-(1R*,2S*),(R*)]-[Iminobis[2-hydroxy-1-(phenylmethyl)-3,1-propanediyl]]biscarbamic acid, 2,3-dihydroxypropyl 1,1-dimethylethyl ester] gave an inhibition at 10 µM (HIV protease; [3]) of 92% and an IC50 [1] of 4900 nM.

With `CC(C)[C@H](NC(=O)CCC(=O)Nc1ccccc1)C(=O)N[C@@H](Cc1ccccc1)[C@H](O)CNC[C@@H](O)[C@H](Cc1ccccc1)NC(=O)OC(C)(C)C` (relative stereo) [Compound 204, [1R*,2S*(2S*,3R*)]-N-[3-[[3-[[(1,1-Dimethylethoxy)carbonyl]amino]-2-hydroxy-4-phenylbutyl]amino]-2-hydroxy-1-(phenylmethyl)propyl]-N^2-[[1,4-dioxo-4-(phenylamino)butyl]-L-valinamide] the inhibition at 10 µM (HIV protease; [3]) was 99% and the IC50 [1] was 170 nM.

In the case of `CC(C)(C)OC(=O)N[C@@H](Cc1ccccc1)[C@H](O)CNC[C@@H](O)[C@H](Cc1ccc(OCc2ccccc2)cc1)NC(=O)OCc1ccccc1` [Compound 17, [1S-[1R*,2S*(2S*,3R*)]]-[3-[[3-[[(1,1-Dimethylethoxy)carbonyl]amino]2-hydroxy-4-phenylbutyl]amino]-2-hydroxy-1-[[4-(phenylmethoxy)phenyl]methyl]propyl]carbamic acid, phenylmethyl ester], the inhibition at 10 µM (HIV protease; [3]) is reported as 84% and the IC50 [1] is reported as greater than 1500 nM.

With `CC(C)(C)OC(=O)N[C@@H](Cc1ccccc1)[C@H](O)CNC[C@@H](O)[C@H](Cc1ccccc1)NC(=O)C(O)(CO)C(C)(C)C` (single isomer, unassigned; isomer a) [Compound 366, [1S-[1R*,2S*(2S*,3R*)]]-[3-[[3-[[2-Hydroxy-2-(hydroxymethyl)-3.3-dimethyl-1-oxobutyl]amino]-2-hydroxy-4-phenylbutyl]amino]-2-hydroxy-1-(phenylmethyl)propyl]carbamic acid. 1.1-dimethylethyl ester, isomer A] the “HIV Protease % Inhibition at 10 μM” value (HIV protease; 10 μM inhibitor, 4% DMSO, 450 μM substrate, pH 5.5, 30 minutes at 37° C., RP-HPLC) was 99% and the IC50 [1] was 9 nM.

`CC(C)(C)OC(=O)N[C@@H](Cc1ccccc1)[C@H](O)CNC[C@@H](O)[C@H](Cc1ccc(OCCc2ccccn2)cc1)NC(=O)OC(C)(C)CO` [Compound 282, [1S-[1R*,2S*(2S*,3R*)]]-[3-[[3-[[(1,1-Dimethylethoxy)carbonyl]amino]-2-hydroxy-4-phenylbutyl]amino]-2-hydroxy-1-[[4-[2-(2-pyridinyl)ethoxy]phenyl]methyl]propyl]carbamic acid, 2-hydroxy-1,1-dimethylethyl ester] gave an inhibition at 10 µM (HIV protease; [3]) of 100% and an IC50 [1] of 60 nM.

Molecule `C[C@@H](O)C(C)(C)OC(=O)N[C@@H](Cc1ccccc1)[C@H](O)CNC[C@@H](O)[C@H](Cc1ccccc1)NC(=O)OC(C)(C)C` [Compound 275, [1S-[1R*,2S*),(S*)]-[Iminobis [2-hydroxy-1-(phenylmethyl)-3,1-propanediyl]]biscarbamic acid, 1,1-dimethylethyl 2-hydroxy-1,1-dimethylpropyl ester] has an inhibition at 10 µM (HIV protease; [3]) of 95% and an IC50 [1] of 450 nM.

Molecule `CN1CCN(CCOc2ccc(C[C@H](NC(=O)OC(C)(C)C)[C@H](O)CNC[C@@H](O)[C@H](Cc3ccccc3)NC(=O)OC(C)(C)C)cc2)C1=O` [Compound 363, [1S-[1R*,2S*(2S*,3R*)]]-[3-[[3-[[(1,1-Dimethylethoxy)carbonyl]amino]-2-hydroxy-4-[4-[2-(3-methyl-2-oxo-1-imidazolidinyl)-ethoxy]phenyl]butyl]amino]-2-hydroxy-1-(phenylmethyl)propyl]carbamic acid, 1,1-dimethylethyl ester] has an inhibition at 10 µM (HIV protease; [2]) of 99% and an IC50 [1] of 40 nM.

Work on `CC(C)[C@H](NC(=O)CCc1c[nH]c2ccccc12)C(=O)N[C@@H](Cc1ccccc1)[C@H](O)CNC[C@@H](O)[C@H](Cc1ccccc1)NC(=O)OC(C)(C)C` (relative stereo) [Compound 260, [1R*,2S*(2S*,3R*)]-N-[3-[[3-[[(1,1-Dimethylethoxy)carbonyl]amino]-2-hydroxy-4-phenylbutyl]amino]-2-hydroxy-1-(phenylmethyl)propyl]-N^2-[3-(1H-indol-3-yl)-1-oxo-propyl]-L-valinamide] yielded an inhibition at 10 µM (HIV protease; [3]) of 100% and an IC50 [1] of 290 nM.

Molecule `CC(C)(C)OC(=O)N[C@@H](Cc1ccccc1)[C@H](O)CNC[C@@H](O)[C@H](Cc1ccccc1)NC(=O)OC1CCOC1` (stereo partly drawn) [Compound 310, [1S-(1R*,2S*)]l-[Iminobis[2-hydroxy-1-(phenylmethyl)3,1-propanediyl]]bis[carbamic acid], 3-tetrahydrofuranyl 1,1-dimethylethyl ester] has an inhibition at 10 µM (HIV protease; [3]) of 100% and an IC50 [1] of 180 nM.
